Here are results for 1 compound from US20230104487A1, “11-(4-CHLOROPHENYL)-4-(2,3-DIHYDRO-1H-INDOLE-1-CARBONYL)-3,11-DIMETHYL-5,10,DIOXATRICYCLO[7.4.0.0,2,6,]TRIDECA-1,3,6,8-TETRAEN-13-ONE AND DERIVATIVES AS DESTABILIZER OF CRY1 FOR THE TREATMENT OF CIRCADIAN RHYTHM ASSOCIATED DISEASES AND DISORDERS” (KOC UNIVERSITESI, priority 2019, published 2023).

“Also recorded” adds a separate entry of the source.

In assay [1] the test system is CRY2. Nature of the assay: Protein immunoblot, synchronized U2-OS cells, CRY2. It is filed as cell-based, human. As to conditions: 10 μM, 80-92 h. On the procedure:
FIGS. 3A-3G are an illustration of FORMULA I decreased CRY1 level in synchronized U2-OS cells. Confluent U2-OS cells were synchronized by 2 h treatment with dexamethasone ([…]) and medium replaced with fresh medium containing FORMULA I or solvent (DMSO final 0.5%). Cells were harvested at indicated time points. FIGS. 3A-3B show lysed cells were analyzed via protein immunoblot technique. […] CRY levels in DMSO control divided by that of in FORMULA I treated samples were reported (mean±SEM, n=4). FIGS. 3C-3G show cells were subjected to reverse-transcription-quantitative polymerase chain reaction (RT-qPCR). […] Expression level of genes was normalized according to the expression level of that gene at 72ndh. (Data represent the mean±SEM, n=3 with duplicates ***: p<0.001 **: p<0.005, *: p<0.05 versus DMSO control by two-way ANOVA).
Cells were lysed in RIPA buffer (50 mM Tris, 150 mM NaCl, 1% Triton-X, 0.1% SDS) with fresh Protease inhibitor cocktail (PIC). After centrifugation at 13000 rpm for 15 minutes at 4° C., supernatant was used to determine the protein amount using Pierce Protein Assay (Thermo Scientific) according to the manufacturer's instruction. Mice liver samples were homogenized and lysed with Dounce homogenizer and RIPA buffer. […] ECL buffer system (Advansta WesternBright) was used to visualize HRP chemi-luminescence via BioRad ChemiDoc Touch visualizer. […]

Assay [2] relates to Ras transformed p53-null MEF cell line. Nature of the assay: Apoptosis assay (PARP cleavage) with oxaliplatin. The assay is classed as cell-based, mouse. As to conditions: 0, 10 or 20 μM oxaliplatin followed by FORMULA I. On the procedure:
FIGS. 6A-6B are an illustration of FORMULA I enhanced the effect of oxalipilatin in p53 null MSF cells. Ras pT24 transformed p53 null MSF fibroblast cells were treated with 0, 10 or 20 μM oxaliplatin and incubated for 24 h. Then either DMSO or FORMULA I was added and incubated for 16 h. Cells were lysed and analyzed via protein immunoblot technique. […] Bar graph was drawn normalizing to 10 μM dosage of oxaliplatin (Data represent the mean±SEM, n=4 **: p<0.005, * p<0.05 versus DMSO control by two-way ANOVA).
In previous studies it was reported that […] mutation sensitizes the Ras transformed p53-null cells, but not cells with wild-type p53, to apoptosis induced by UV or UV mimetic agents e.g oxaliplatin. Using fibroblasts isolated from the skin of Cry1^−/−Cry2^−/−p53^−/− and p53^−/− mice, it has been shown that Cry deletion on the p53-null background sensitized the cells to bulky-DNA adduct-induced apoptosis (Lee and Sancar, 2011). With the expectation that FORMULA I would destabilize CRY1 and increase the effectiveness of UV mimetic chemotherapeutic agents, we performed apoptosis assay with Ras transformed p53-null MEF cell lines. In this assay, cells were treated by increasing dose of oxaliplatin for 16 h followed by FORMULA I treatment for 24 h and probed for apoptosis by measuring PARP cleavage. […]

Assay [3] deals with T1, CRY1 (Homo sapiens, UniProt Q16526).
T1 construct: To evaluate the effect of FORMULA I on the endogenous protein and mRNA level of clock genes; endogenous in cells; host or cells: U2-OS
T1 sequence (Q16526 1-586): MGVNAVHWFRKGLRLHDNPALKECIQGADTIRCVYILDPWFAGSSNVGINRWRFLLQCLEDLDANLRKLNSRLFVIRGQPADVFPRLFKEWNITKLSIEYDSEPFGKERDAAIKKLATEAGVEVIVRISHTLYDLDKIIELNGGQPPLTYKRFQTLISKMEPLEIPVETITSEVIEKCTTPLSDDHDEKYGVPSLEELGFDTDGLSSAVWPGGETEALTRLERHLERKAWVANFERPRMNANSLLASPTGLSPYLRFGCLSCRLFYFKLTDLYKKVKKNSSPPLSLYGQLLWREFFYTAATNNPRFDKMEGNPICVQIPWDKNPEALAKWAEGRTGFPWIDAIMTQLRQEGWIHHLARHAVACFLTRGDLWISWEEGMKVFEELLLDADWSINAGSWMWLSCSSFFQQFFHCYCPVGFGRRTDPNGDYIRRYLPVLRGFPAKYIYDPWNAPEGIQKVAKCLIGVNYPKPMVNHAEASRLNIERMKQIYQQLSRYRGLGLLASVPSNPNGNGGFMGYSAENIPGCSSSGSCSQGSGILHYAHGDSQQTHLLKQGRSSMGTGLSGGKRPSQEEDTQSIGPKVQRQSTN
The assay is described as follows: Protein immunoblot, unsynchronized U2-OS cells, CRY1. As to conditions: Western blot. The assay is classed as cell-based. On the procedure: Cells were lysed in RIPA buffer (50 mM Tris, 150 mM NaCl, 1% Triton-X, 0.1% SDS) with fresh Protease inhibitor cocktail (PIC). After centrifugation at 13000 rpm for 15 minutes at 4° C., supernatant was used to determine the protein amount using Pierce Protein Assay (Thermo Scientific) according to the manufacturer's instruction. Mice liver samples were homogenized and lysed with Dounce homogenizer and RIPA buffer. After homogenization samples were incubated 10 minutes on ice. After centrifugation 13000 rpm 15 minutes at 4° C. supernatant was used for the whole cell lysate. Subcellular fractionation of liver samples: Liver samples were homogenized with cytosolic lysis buffer (10 mM HEPES pH 7.9, 10 mM KCl, 0.1 mM EDTA, 0.05% NP40, proteasome inhibitor) by pipetting 40 times with a cut tip. Then samples were incubated 10 minutes on ice and centrifuged for 3 minutes at 3000 rpm at 4° C. Supernatant was saved in a new tube, and pellet was processed for the nuclear fraction. Supernatant was centrifuged at 13000 rpm for 3 minutes at 4° C. where new supernatant saved as the cytosolic fraction. […] ECL buffer system (Advansta WesternBright) was used to visualize HRP chemi-luminescence via BioRad ChemiDoc Touch visualizer.

In the case of `Cc1c(C(=O)N2CCc3ccccc32)oc2ccc3c(c12)C(=O)CC(C)(c1ccc(Cl)cc1)O3` (stereo not drawn) [FORMULA I, 11-(4-chlorophenyl)-4-(2,3-dihydro-1H-indole-1-carbonyl)-3,11-dimethyl-5,10,dioxatricyclo[7.4.0.0,2,6,]trideca-1,3,6,8-tetraen-13-one], the CRY2 protein level entry in assay [1] was “increased CRY2 levels; also recorded: increased the level of CRY2”. Moreover, the “oxaliplatin-induced apoptosis (cleaved PARP)” value in assay [2] is given as “sensitized Ras transformed p53-null MEF cell line to oxaliplatin-induced apoptosis; also recorded: increases the cleaved PARP protein level”. Further, the “steady-state level of CRY1” value in assay [3] was “level of CRY1 reduced; also recorded: decreased the steady-state level of CRY1”.
